Experimental data as given in ChEMBL document CHEMBL1759872, “Small-molecule probe using dual signals to monitor leucine aminopeptidase activity” (Bioorg Med Chem Lett, 2011).

What was measured:
[1] = species on record: Sus scrofa; assay: Activity at pig kidney LAP after 40 mins by Michaelis-Menten equation; type: tissue-based
[2] = tested on: HCT-116; assay: Drug uptake in human HCT116 cells at 20 uM after 20 mins by DAPI staining based microscopic analysis in presence of bestatin; type: ADME, cell-based; settings: hct-116, 20 min
[3] = tested on: HCT-116; assay: Drug uptake in human HCT116 cells at 20 uM after 20 mins by DAPI staining based microscopic analysis; type: ADME, cell-based; settings: hct-116, 20 min
[4] = Competitive inhibition of pig kidney LAP activity using N-(6-Methoxypyridine-3-yl), (S)-2-amino-4-methylpentanamide as substrate after 10 mins by Michaelis-Menten equation
[5] = Competitive inhibition of pig kidney LAP activity using l-Leucine-p-nitroanilide as substrate after 10 mins by Michaelis-Menten equation
[6] = Competitive inhibition of pig kidney LAP activity using DCDHF-Leu as substrate after 10 mins by Michaelis-Menten equation

| Km [1] [µM] | SMILES | Vmax [1] [µmol/min/mg] | also measured |
| --- | --- | --- | --- |
| 65 | COc1ccc(NC(=O)[C@@H](N)CC(C)C)cn1 | 7.7 | – |
| 8.87 | CC(C)C[C@H](N)C(=O)Nc1ccc(/C=C/C2=C(C#N)C(=C(C#N)C#N)OC2(C)C)cc1 | 6.64 | Drug uptake [2]: Not Active; fold change (FC) [3]: 6 |
| – | CC(C)C[C@H](NC(=O)[C@@H](O)[C@H](N)Cc1ccccc1)C(=O)O [UBENIMEX] | – | IC50 [4]: 7 µM; IC50 [5]: 25 µM; IC50 [6]: 4.41 µM |
| – | CC1(C)OC(=C(C#N)C#N)C(C#N)=C1/C=C/c1ccc(N)cc1 | – | Drug uptake [3]: Active |
| 3000 | CC(C)C[C@H](N)C(=O)Nc1ccc([N+](=O)[O-])cc1 | 3.9 | – |
